Results taken from publication PMC6611822, “Enhancement of laccase activity by pre-incubation with organic solvents” (Scientific Reports, 2019).

Key:
AbLac = system: T1, AbLac; details: 0% acetone pre-incubation; pH 3.0 citrate-phosphate; 30 °C
T1 construct: gene lcc1

TvLac = system: T2, TvLac; details: 0% acetone pre-incubation; pH 3.0 citrate-phosphate; 30 °C
T2 construct: gene LCC1

purified protein = substrate: CCn1c(=NN=c2sc3cc(S(=O)(=O)O)ccc3n2CC)sc2cc(S(=O)(=O)O)ccc21; assay: purified protein; format: biochemical, Cerrena; details: 0% acetone pre-incubation, pH 3.0 citrate-phosphate, 30 °C, 1.25–800 μM ABTS

Molecule	Km (AbLac)	Km (TvLac)	Km (purified protein)	kcat/Km (purified protein)
CCn1c(=NN=c2sc3cc(S(=O)(=O)O)ccc3n2CC)sc2cc(S(=O)(=O)O)ccc21 [ABTS, 2,2′-azino-bis(3-ethylbenzothiazoline-6-sulphonic acid)]	212 ± 19.5 µM	29 ± 2.1 µM		
DLac (Cerrena) (protein, source not restated here; 494 C atoms superimposed in the crystal structures) AVGPVTDIHIVNKDIAPDGFSRPSVLAGGTFPGPLITGQKGDNFKLNVVDDLTDASMLKSTSIHWHGFFQKGTNWADGPAFVNQCPISTGNSFLYNFQVPDQAGTYWYHSHLSTQYCDGLRGAFVVYDPTDPHKALYDVDDESTVITLADWYHTLARQIVGVAIADTTLINGLGRNTNGPADAALAVINVEAGKRYRLRLVSISCDPNYVFSIDNHDFNIIEVDGVNSKPLNVDSIQIFAGQRYSAVLNANQPVGNYWVRANPNLGTTGFTGGINSAILRYKGAPVAEPTTTQTTSTKPLQEPNLRPLVSMPVPGSATPGGVDVVHNLILGFSAGKFTINGAAFTPPSVPVLLQILSGTTNAQDLLPSGSVITLPIGKTIELTLAAGVLGGPHPFHLHGHNFHVVRSAGQTTPNYVDPIVRDVVNTGGTGDNVTIRFTTDNPGPWFLHCHIDWHLEAGFAVVFAEGVNQTNAANPTPADWNNLCNIYNALADGDK			24 ± 3.9 µM	1.47e+09 ± 3.1e+08 M⁻¹ s⁻¹
